{"source": "ChEMBL document CHEMBL1152765", "about": "“Discovery of new inhibitors of the bacterial peptidoglycan biosynthesis enzymes MurD and MurF by structure-based virtual screening” (Bioorg Med Chem, 2009)", "key": {"Escherichia coli [1]": {"test_system": "Escherichia coli", "assay": "Inhibition of Escherichia coli MurF assessed as residual activity at 250 uM by malachite green assay"}, "Escherichia coli [2]": {"test_system": "Escherichia coli", "assay": "Antibacterial activity against Escherichia coli 1411 after 18 hrs by broth microdilution method", "assay_type": "functional, organism-based"}, "Escherichia coli [3]": {"test_system": "Escherichia coli", "assay": "Antibacterial activity against AcrAB deficient Escherichia coli SM1411 after 18 hrs by broth microdilution method", "assay_type": "functional, organism-based"}, "Staphylococcus aureus": {"test_system": "Staphylococcus aureus", "assay": "Antibacterial activity against Staphylococcus aureus 8325-4 after 18 hrs by broth microdilution method", "assay_type": "functional"}, "Escherichia coli [4]": {"test_system": "Escherichia coli", "assay": "Inhibition of Escherichia coli MurD assessed as residual activity at 250 uM by malachite green assay"}, "[5]": {"assay": "Inhibition of Escherichia coli MurF"}, "[6]": {"assay": "Inhibition of Escherichia coli MurD assessed as blockade of addition of D-[14C]Glu to UDP-MurNAc-L-Ala"}}, "note": "Activity calls are given as the source filed them. The calls are words filed in the database; no cut-off is given here.", "data": [{"smiles": "CSc1ccc2c(c1)c(CCN)c(C)n2Cc1ccccc1Cl", "values": [{"measurement": "Activity", "setting": "Escherichia coli [1]", "result": "< 50", "unit": "%"}, {"measurement": "Activity", "setting": "Escherichia coli [2]", "result": "inactive"}, {"measurement": "Activity", "setting": "Escherichia coli [3]", "result": "inactive"}, {"measurement": "Activity", "setting": "Staphylococcus aureus", "result": "inactive"}]}, {"smiles": "O=S(=O)(O)c1ccc2c(/N=N/c3c(O)ccc4ccccc34)cccc2c1", "values": [{"measurement": "Activity", "setting": "Escherichia coli [1]", "result": "< 50", "unit": "%"}, {"measurement": "Activity", "setting": "Escherichia coli [2]", "result": "inactive"}, {"measurement": "Activity", "setting": "Escherichia coli [3]", "result": "inactive"}, {"measurement": "Activity", "setting": "Staphylococcus aureus", "result": "inactive"}]}, {"smiles": "Oc1ccccc1C(Sc1nc2ccccc2s1)Sc1nc2ccccc2s1", "values": [{"measurement": "Activity", "setting": "Escherichia coli [1]", "result": "< 50", "unit": "%"}, {"measurement": "Activity", "setting": "Escherichia coli [2]", "result": "inactive"}, {"measurement": "Activity", "setting": "Escherichia coli [3]", "result": "inactive"}, {"measurement": "Activity", "setting": "Staphylococcus aureus", "result": "inactive"}]}, {"smiles": "O=C(O)C1C(C(=O)O)C2(Cl)C(Cl)=C(Cl)C1(Cl)C2(Cl)Cl", "note": "(stereo unspecified)", "values": [{"measurement": "Activity", "setting": "Escherichia coli [4]", "result": "< 50", "unit": "%"}, {"measurement": "Activity", "setting": "Escherichia coli [2]", "result": "inactive"}, {"measurement": "Activity", "setting": "Escherichia coli [3]", "result": "inactive"}, {"measurement": "Activity", "setting": "Staphylococcus aureus", "result": "inactive"}]}, {"smiles": "Oc1nc(S)nc(SCc2c(Cl)c(Cl)c(Cl)c(Cl)c2Cl)n1", "values": [{"measurement": "Activity", "setting": "Escherichia coli [1]", "result": "< 50", "unit": "%"}, {"measurement": "IC50", "setting": "[5]", "result": 63, "unit": "µM"}, {"measurement": "Activity", "setting": "Escherichia coli [3]", "result": "Active"}, {"measurement": "MIC", "setting": "Staphylococcus aureus", "result": 128, "unit": "µg/mL"}]}, {"smiles": "FC(F)(F)c1nc2ccc(SSc3ccc4nc(C(F)(F)F)[nH]c4c3)cc2[nH]1", "values": [{"measurement": "Activity", "setting": "Escherichia coli [1]", "result": "< 50", "unit": "%"}, {"measurement": "Activity", "setting": "Escherichia coli [2]", "result": "inactive"}, {"measurement": "Activity", "setting": "Escherichia coli [3]", "result": "inactive"}, {"measurement": "Activity", "setting": "Staphylococcus aureus", "result": "inactive"}]}, {"smiles": "O=C1/C(=N/CCc2cc(Br)c(O)c(Br)c2)C=C(O)c2cccnc21", "values": [{"measurement": "Activity", "setting": "Escherichia coli [1]", "result": "< 50", "unit": "%"}, {"measurement": "Activity", "setting": "Escherichia coli [2]", "result": "inactive"}, {"measurement": "Activity", "setting": "Escherichia coli [3]", "result": "inactive"}, {"measurement": "Activity", "setting": "Staphylococcus aureus", "result": "inactive"}]}, {"smiles": "Nc1c(S(=O)(=O)O)cc(Nc2cccc(S(N)(=O)=O)c2)c2c1C(=O)c1ccccc1C2=O", "values": [{"measurement": "Activity", "setting": "Escherichia coli [1]", "result": "< 50", "unit": "%"}, {"measurement": "Activity", "setting": "Escherichia coli [2]", "result": "inactive"}, {"measurement": "Activity", "setting": "Escherichia coli [3]", "result": "inactive"}, {"measurement": "Activity", "setting": "Staphylococcus aureus", "result": "inactive"}]}, {"smiles": "O=C(O)c1c(Br)c(Br)c(Br)c(Br)c1C1c2ccc(O)cc2Oc2cc(O)ccc21", "values": [{"measurement": "Activity", "setting": "Escherichia coli [4]", "result": "< 50", "unit": "%"}, {"measurement": "IC50", "setting": "[6]", "result": 10, "unit": "µM"}, {"measurement": "Activity", "setting": "Escherichia coli [2]", "result": "inactive"}, {"measurement": "Activity", "setting": "Escherichia coli [3]", "result": "inactive"}, {"measurement": "Activity", "setting": "Staphylococcus aureus", "result": "inactive"}]}, {"smiles": "CC1C2C=CC1C(c1c3ccc(=O)c(O)c-3oc3c(O)c(O)ccc13)C2C(=O)O", "note": "(stereo unspecified)", "values": [{"measurement": "IC50", "setting": "[6]", "result": 43, "unit": "µM"}, {"measurement": "Activity", "setting": "Escherichia coli [2]", "result": "inactive"}, {"measurement": "Activity", "setting": "Escherichia coli [3]", "result": "inactive"}, {"measurement": "Activity", "setting": "Staphylococcus aureus", "result": "inactive"}]}, {"smiles": "CCCCCCCCCCCCN(C)C", "values": [{"measurement": "Activity", "setting": "Escherichia coli [1]", "result": "< 50", "unit": "%"}, {"measurement": "Activity", "setting": "Escherichia coli [2]", "result": "inactive"}, {"measurement": "Activity", "setting": "Escherichia coli [3]", "result": "inactive"}, {"measurement": "Activity", "setting": "Staphylococcus aureus", "result": "inactive"}]}, {"smiles": "O=S(=O)(O)c1cc(/N=[N+](\\[O-])c2cc(S(=O)(=O)O)c3ccccc3c2)cc2ccccc12", "values": [{"measurement": "Activity", "setting": "Escherichia coli [1]", "result": "< 50", "unit": "%"}, {"measurement": "Activity", "setting": "Escherichia coli [2]", "result": "inactive"}, {"measurement": "Activity", "setting": "Escherichia coli [3]", "result": "inactive"}, {"measurement": "Activity", "setting": "Staphylococcus aureus", "result": "inactive"}]}, {"smiles": "CCOc1ccc2c(c1)C=C/C(=C/C=C1\\C=C(C)c3cccnc3C1=O)N2C", "values": [{"measurement": "Activity", "setting": "Escherichia coli [1]", "result": "< 50", "unit": "%"}, {"measurement": "Activity", "setting": "Escherichia coli [2]", "result": "inactive"}, {"measurement": "Activity", "setting": "Escherichia coli [3]", "result": "inactive"}, {"measurement": "Activity", "setting": "Staphylococcus aureus", "result": "inactive"}]}, {"smiles": "O=C(O)/C=C/c1c2ccc(=O)c(O)c-2oc2c(O)c(O)ccc12", "values": [{"measurement": "Activity", "setting": "Escherichia coli [4]", "result": "< 50", "unit": "%"}, {"measurement": "IC50", "setting": "[6]", "result": 47, "unit": "µM"}, {"measurement": "Activity", "setting": "Escherichia coli [2]", "result": "inactive"}, {"measurement": "Activity", "setting": "Escherichia coli [3]", "result": "inactive"}, {"measurement": "Activity", "setting": "Staphylococcus aureus", "result": "inactive"}]}, {"smiles": "Sc1nnc(SCc2ccccc2Cl)c2nc[nH]c12", "values": [{"measurement": "Activity", "setting": "Escherichia coli [1]", "result": "< 50", "unit": "%"}, {"measurement": "Activity", "setting": "Escherichia coli [2]", "result": "inactive"}, {"measurement": "Activity", "setting": "Escherichia coli [3]", "result": "inactive"}, {"measurement": "Activity", "setting": "Staphylococcus aureus", "result": "inactive"}]}, {"smiles": "O=C(O)c1cc2c(cc1S(=O)(=O)O)C1C(C3C2C2(Cl)C(Cl)=C(Cl)C3(Cl)C2(Cl)Cl)C2(Cl)C(Cl)=C(Cl)C1(Cl)C2(Cl)Cl", "note": "(stereo unspecified)", "values": [{"measurement": "Activity", "setting": "Escherichia coli [4]", "result": "< 50", "unit": "%"}, {"measurement": "IC50", "setting": "[6]", "result": 34, "unit": "µM"}, {"measurement": "Activity", "setting": "Escherichia coli [2]", "result": "inactive"}, {"measurement": "Activity", "setting": "Escherichia coli [3]", "result": "inactive"}, {"measurement": "Activity", "setting": "Staphylococcus aureus", "result": "inactive"}]}, {"smiles": "O=C(O)c1c(Cl)c(Cl)c(Cl)c(Cl)c1C(=O)Nc1ccc2cn[nH]c2c1", "values": [{"measurement": "Activity", "setting": "Escherichia coli [1]", "result": "< 50", "unit": "%"}, {"measurement": "Activity", "setting": "Escherichia coli [2]", "result": "inactive"}, {"measurement": "Activity", "setting": "Escherichia coli [3]", "result": "inactive"}, {"measurement": "Activity", "setting": "Staphylococcus aureus", "result": "inactive"}]}]}
